Read-outs that look alike come from different tables or passages of the source.
Experiments:
U2OS = assay: Binding of La-specific mAb to apoptotic human cancer cell lines (U2OS); type: cell-based; details: 0.5 μM staurosporine, 20 μg/mL etoposide, 3B9-FITC staining
Description: Direct immunofluorescence staining was performed using 1-2×10^5 cells at 10^6 cells/mL for 30 min at room temperature in PBS containing 0.1% BSA and 5 μg/mL of FITC-conjugated mAb. […] Cell viability was assessed by the exclusion of PI detected using the FL-2 (585-nm filter) or the exclusion of 7-AAD detected using the FL-3 (>650 nm filter).

Raji = assay: Binding of La-specific mAb to apoptotic human cancer cell lines (Raji); details: 2 μM staurosporine, 20 μg/mL etoposide or 0.1 μg/mL vincristine, 3B9-FITC staining
HeLa = assay: Binding of La-specific mAb to apoptotic human cancer cell lines (HeLa); details: 0.5 μM staurosporine, 20 μg/mL etoposide or 0.1 μg/mL vincristine, 3B9-FITC staining
Jurkat = assay: Binding of La-specific mAb to apoptotic human cancer cell lines (Jurkat); details: 0.5 μM staurosporine, 20 μg/mL etoposide or 0.1 μg/mL vincristine, 3B9-FITC staining
apoptotic Jurkat cells = assay: MDC inhibition of protein crosslinking and 3B9 binding in cisplatin-treated Jurkat cells; type: cell-based, human; details: for IC50: Homo sapiens, read-out: concentration of MDC required to inhibit half of the binding of 3B9
Description: FIG. 18 depicts that La antigen is crosslinked during apoptosis. (A) Jurkat cells incubated in 20 μg/mL cisplatin were removed at specified time points and incubated for 10 min. in 1% Triton X-100 solution before 3B9 binding analysis. Data are presented as density plots of staining with 3B9 vs. 7-AAD. (B) Immunoblots of cell lysates of control and cisplatin-treated Jurkat cells were probed with 3B9 for expression of La (top panels) or actin as a loading control (bottom panels) at specified times. (C) Jurkat cells incubated in the absence or presence of increasing concentrations of cisplatin were labeled with cadaverine-biotin added at 100 μM for 48 h. Cells were stained with strepatavidin-Alexa488 and analyzed by flow cytomtery. Data shown are MFI±SEM (n=3). (D) Jurkat cells incubated in the absence or presence of 20 μg/mL cisplatin were incubated with increasing concentrations of MDC. Cells were analyzed at specified times (24 □, 48 ? and 72 h ▪) for sulforhodamine 101 staining. Inset summarizes the dependence of the protein cross-linking ratio on MDC concentration at 48 h (—) and 72 h ( . . . ) after cisplatin treatment of Jurkat cells. (E) Jurkat cells incubated with cisplatin in the absence or presence of increasing concentrations of MDC were stained with 3B9. 3B9-specific binding is presented as Net MFI±SEM (n=3). Inset summarizes the dependence of 3B9-specific binding on MDC concentration at 24 h (—), 48 h (— —) and 72 h ( . . . ) after cisplatin treatment of Jurkat cells. Data are representative of three identical and independent assays, which produced similar results.
Transglutaminase 2 (TG2)-mediated protein-protein crosslinking in apoptotic cells was investigated using a modification of a previously described method. Briefly, cells were resuspended at 1×10^6 cells/mL in PBS containing 1% Triton X-100, 0.2 μg/mL sulforhodamine 101 and 0.1 μM SytoxGreen. Samples were vortexed and incubated for 5 min. before analysis by flow cytometry where fluorescence from Sytox Green and sulforhodamine were detected using FL-1 and FL-3, respectively. The degree of crosslinking in apoptotic cells was calculated as the ratio of the MFI of sulforhodamine staining in apoptotic cells to the MFI in control cells (protein crosslinking ratio). In other experiments, cells were incubated with PBS or 1% Triton X-100 in PBS for 10 min. at RT with intermittent vortexing.
To test inhibition of protein crosslinking, cultured cells were incubated with increasing concentrations of the competitive TG2inhibitor, monodansylcadaverine (MDC). MDC was dissolved in DMSO at 25 mM and then diluted in culture media before it was added to cell cultures at the specified concentrations for the specified duration. […]

PANC-1 cells [1] = assay: Cell death and 3B9 binding of PANC-1 cells treated with gemcitabine and TSA in vitro; type: cell-based, human; details: compared with control or single agent
Description: FIG. 15 depicts that 3B9 binding to dead PANC-1 cells is augmented after combination treatment with gemcitabine and TSA produced additive cytotoxicity and DNA-damaging effects. PANC-1 cells were incubated with increasing concentrations of gemcitabine in the absence (clear columns) or presence of 100 ng/mL (hatched columns) or 200 ng/mL (filled columns) of TSA. Analysis was done for viability using 7-AAD (A), 3B9-specific binding (B) and DNA damage using γH2AX staining (C). Data are presented as mean±SEM from three independent experiments. Photomicrographs show PANC-1 cells treated with gemcitabine and TSA (+) or not (−), which were stained with γH2AX-specific mAb and 7-AAD (D).
Apoptosis or cell death was induced by adding cytotoxic drugs to culture media at the specified concentrations. […] Control (untreated) cells had ≧90% viability determined by PI or trypan blue staining (data not shown). […]
Indirect immunofluorescence staining was performed using purified mouse antibodies at 5 μg/mL for 30 min. at room temperature (RT) in PBS followed by Alexa488-conjugated anti-mouse IgG at 2 μg/mL for 30 min. at RT in PBS. […] Cells were washed then incubated (30 min. at RT) with 2 μg/mL of FITC-conjugated anti-rabbit IgG antibody, which was detected using the FL-1 channel. […] Flow cytometry data were analyzed using WinMDI v2.8 (Scripps Research Institute, La Jolla, Calif.). […]

PANC-1 cells [2] = assay: MTS proliferation assay of PANC-1 cells; type: cell-based, human
Description: FIG. 50 depicts that gemcitabine and TSA synergise to reduce proliferation rates among PANC-1 cells in vitro. PANC-1 cells (2×10^4 cells) were seeded in flat bottom 96-well plates overnight using phenol-free RPMI-1640 medium containing 10% FCS (medium). A serial dilution of 2×10^4 cells was used to construct a standard curve for the MTS assay. Triplicate wells were incubated with increasing concentrations of TSA (nM) with or without the addition of increasing concentrations of gemcitabine. Three identical plates were incubated for 24, 48 or 72 h then medium was decanted and fresh medium (100 μL) containing 20 μL MTS/PMS substrate was added to all wells. Assays were performed according to the manufacturer's instructions. The change in the absorbance reading over time was calculated for each condition in units of change per 12 h (upper panel), which was converted to units of cell number change per 12 h (lower panel) using a standard curve of the absorbance reading […] (r^2=0.99).

SMILES	percentage of PI+ and 3B9+ events after subtraction of control (PI+ and Sal5+) events (U2OS) [%]	percentage of PI+ and 3B9+ events after subtraction of control (PI+ and Sal5+) events (Raji) [%]	percentage of PI+ and 3B9+ events after subtraction of control (PI+ and Sal5+) events (HeLa) [%]	percentage of PI+ and 3B9+ events after subtraction of control (PI+ and Sal5+) events (Jurkat) [%]	further results
COc1cc([C@@H]2c3cc4c(cc3[C@@H](O[C@@H]3O[C@@H]5CO[C@@H](C)O[C@H]5[C@H](O)[C@H]3O)[C@H]3COC(=O)[C@H]23)OCO4)cc(OC)c1O [Etoposide, etoposide]	28.0	21.3	36.1	22.6	
CN(C)c1cccc2c(S(=O)(=O)NCCCCCN)cccc12 [MDC, monodansylcadaverine]					IC50 (apoptotic Jurkat cells; 24 h after cisplatin treatment of Jurkat cells): 260 ± 1 µM; IC50 (apoptotic Jurkat cells; 48 h after cisplatin treatment of Jurkat cells): 110 ± 1 µM; IC50 (apoptotic Jurkat cells; 72 h after cisplatin treatment of Jurkat cells): 150 ± 1 µM; effect on protein crosslinking (sulforhodamine crosslinking ratio) (apoptotic Jurkat cells; cisplatin-treated Jurkat cells): dose-dependent inhibitory effect
CC(/C=C/C(=O)NO)=C\[C@@H](C)C(=O)c1ccc(N(C)C)cc1 [TSA, trichostatin A]					3B9-specific binding to PANC-1 cells (PANC-1 cells [1]): did not alter 3B9 binding; proliferation of PANC-1 cells (PANC-1 cells [2]; TSA alone): inhibited proliferation
CC[C@]1(O)C[C@H]2CN(CCc3c([nH]c4ccccc34)[C@@](C(=O)OC)(c3cc4c(cc3OC)N(C=O)[C@H]3[C@@](O)(C(=O)OC)[C@H](OC(C)=O)[C@]5(CC)C=CCN6CC[C@]43[C@@H]65)C2)C1 [Vincristine, vincristine]		9.8	18.6	12.1	
CN[C@@H]1C[C@H]2O[C@@](C)([C@@H]1OC)n1c3ccccc3c3c4c(c5c6ccccc6n2c5c31)C(=O)NC4 [Staurosporine, staurosporine]	65.9	28.8	62.5	56.1	
Nc1ccn([C@@H]2O[C@H](CO)[C@@H](O)C2(F)F)c(=O)n1 [gemcitabine]					proliferation of PANC-1 cells (PANC-1 cells [2]; gemcitabine added at a TSA concentration of 50 nM): completely inhibited; numbers of PANC-1 cells in the cultures (PANC-1 cells [2]; gemcitabine added at a TSA concentration of 200 nM): significantly reduced the numbers
